Source: patent US20090258836A1, “EFFECTIVE DELIVERY OF CROSS-SPECIES A3 ADENOSINE-RECEPTOR ANTAGONISTS TO REDUCE INTRAOCULAR PRESSURE” (The Trustees of The University of Pennsylvania, priority 2006, published 2009)
Entries after “also recorded” stand apart in the source; their conditions may differ.

What was measured:
[1] = tested on: HCE (human ciliary epithelial) cell line, NPE cells; assay: Cell volume in isosmotic solution (isosmotic shrinkage), Coulter Counter; type: cell-based
Summary of the method: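 Immortalized human NPE (HCE) cells, 8-13 days post-passage at confluence, suspended in isosmotic solution with test agents or matched vehicle. Volume measured by Coulter Counter as peak of distribution, normalized to first time point; shrinkage fit to monoexponential by nonlinear least squares for steady-state volume and time constant.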

[2] = tested on: IOP of A3 subtype adenosine receptor (A3AR)-null mice; conditions: published reports; cited from earlier work
human A2A receptors = human A2A receptors (Homo sapiens, UniProt P29274); conditions: literature; read-out: Ki for the binding to human A2A receptors; cited from earlier work
mouse IOP = assay: Mouse IOP after topical application, non-invasive pneumotonometry; type: in vivo, Black Swiss mice
Summary of the method: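 Black Swiss outbred mice (7-9 weeks, mixed sex) under intraperitoneal ketamine plus topical proparacaine 0.5%. Drugs applied topically as […] droplets three times, containing <2% DMSO and 0.0005% benzalkonium chloride; IOP measured non-invasively by pneumotonometry at 10-min intervals from a stereotactically fixed probe position.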

Sequence of human A2A receptors (P29274 whole entry): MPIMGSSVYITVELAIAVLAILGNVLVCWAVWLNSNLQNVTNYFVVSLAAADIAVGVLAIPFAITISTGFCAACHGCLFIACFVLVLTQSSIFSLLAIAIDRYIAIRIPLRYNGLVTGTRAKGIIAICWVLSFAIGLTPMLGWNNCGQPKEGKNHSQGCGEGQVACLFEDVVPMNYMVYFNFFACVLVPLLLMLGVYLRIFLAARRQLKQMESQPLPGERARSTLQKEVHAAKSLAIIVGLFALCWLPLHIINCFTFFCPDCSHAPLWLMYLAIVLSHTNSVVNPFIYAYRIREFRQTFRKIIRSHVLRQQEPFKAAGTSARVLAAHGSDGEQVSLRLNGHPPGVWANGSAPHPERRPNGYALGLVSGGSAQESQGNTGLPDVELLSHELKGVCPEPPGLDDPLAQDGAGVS

In the case of `CCOC(=O)C1=C(C)NC(c2ccccc2)=C(C(=O)OCc2ccccc2)C1C#Cc1ccccc1` (racemic) [MRS-1191, 3-ethyl 5-benzyl-2-methyl-6-phenyl-4-phenylethynyl-1,4-(±)-dihydropyridine-3,5-dicarboxylate], the “effect of A3 antagonist on IB-MECA-triggered isosmotic shrinkage of NPE cells” value ([1]; 100 nM IB-MECA, 2 min preincubation with 300 nM MRS-1097 or 100 nM MRS-1191) is reported as “prevented characteristic shrinkage; also recorded: prevented the shrinkage”, the “effect on cell volume in the absence of IB-MECA” value ([1]; 100 nM MRS-1191) is reported as “did not affect cell volume” and the “effect of A3 antagonist on isosmotic shrinkage triggered by CGS-21680” value ([1]; 3 μM CGS-21680, preincubation with 100 nM MRS-1191) is reported as “abolished this effect; also recorded: blocked; also recorded: prevented the shrinkage”. The “effect of A3 antagonist on adenosine-stimulated isotonic shrinkage of NPE cells” value ([1]; 10 μM adenosine, 2 min preincubation with 300 nM MRS-1097, 100 nM MRS-1191 or 100 nM MRS-1523) was “prevented the characteristic shrinkage; also recorded: blocked the shrinkage”, the “response of IOP of A3AR-null mice” value [2] was “unresponsive” and the Ki (human A2A receptors) was > 100 µM. The “time of maximum decrease in IOP observed pneumotonometrically” value (mouse IOP; after the initial application, end of the experiments) was 30 min and the “time to begin lowering mouse IOP significantly, non-invasive” value (mouse IOP; after topical application) was 30 min.
